Reference: the NIST ThermoML archive (doi:10.1016/j.jct.2012.08.003)

How the values were obtained:
[1] = for molar entropy: 101.33 kPa
[2] = molar heat capacity at constant pressure; conditions: 101.33 kPa
[3] = Molar enthalpy of transition or fusion; conditions: Crystal

[Cs+].[F-] [cesium fluoride (CsF)]
Conditions | molar entropy, [1] [J/K/mol] | molar heat capacity at constant pressure, [2] [J/K/mol]
5 K, Crystal, Vacuum adiabatic calorimetry | 0.08 | 0.16
10 K, Crystal, Vacuum adiabatic calorimetry | 0.49 | 1.3
15 K, Crystal, Vacuum adiabatic calorimetry | 1.54 | 4.39
20 K, Crystal, Vacuum adiabatic calorimetry | 3.34 | 8.57
25 K, Crystal, Vacuum adiabatic calorimetry | 5.65 | 12.33
30 K, Crystal, Vacuum adiabatic calorimetry | 8.2 | 15.77
35 K, Crystal, Vacuum adiabatic calorimetry | 10.86 | 18.9
40 K, Crystal, Vacuum adiabatic calorimetry | 13.57 | 21.75
45 K, Crystal, Vacuum adiabatic calorimetry | 16.28 | 24.36
50 K, Crystal, Vacuum adiabatic calorimetry | 18.97 | 26.72
60 K, Crystal, Vacuum adiabatic calorimetry | 24.21 | 30.78
70 K, Crystal, Vacuum adiabatic calorimetry | 29.21 | 34.08
80 K, Crystal, Vacuum adiabatic calorimetry | 33.94 | 36.74
90 K, Crystal, Vacuum adiabatic calorimetry | 38.4 | 38.87
100 K, Crystal, Vacuum adiabatic calorimetry | 42.59 | 40.59
110 K, Crystal, Vacuum adiabatic calorimetry | 46.53 | 42.2
120 K, Crystal, Vacuum adiabatic calorimetry | 50.27 | 43.53
130 K, Crystal, Vacuum adiabatic calorimetry | 53.8 | 44.7
140 K, Crystal, Vacuum adiabatic calorimetry | 57.15 | 45.59
150 K, Crystal, Vacuum adiabatic calorimetry | 60.32 | 46.3
160 K, Crystal, Vacuum adiabatic calorimetry | 63.33 | 46.86
170 K, Crystal, Vacuum adiabatic calorimetry | 66.18 | 47.31
180 K, Crystal, Vacuum adiabatic calorimetry | 68.9 | 47.69
190 K, Crystal, Vacuum adiabatic calorimetry | 71.49 | 48
200 K, Crystal, Vacuum adiabatic calorimetry | 73.95 | 48.28
210 K, Crystal, Vacuum adiabatic calorimetry | 76.32 | 48.51
220 K, Crystal, Vacuum adiabatic calorimetry | 78.58 | 48.73
230 K, Crystal, Vacuum adiabatic calorimetry | 80.75 | 48.93
240 K, Crystal, Vacuum adiabatic calorimetry | 82.84 | 49.12
250 K, Crystal, Vacuum adiabatic calorimetry | 84.84 | 49.3
260 K, Crystal, Vacuum adiabatic calorimetry | 86.78 | 49.48
270 K, Crystal, Vacuum adiabatic calorimetry | 88.65 | 49.66
280 K, Crystal, Vacuum adiabatic calorimetry | 90.46 | 49.84
290 K, Crystal, Vacuum adiabatic calorimetry | 92.21 | 50.03
298.15 K, Crystal, Drop calorimetry | 93.6 | 50.19
298.15 K, Crystal, Vacuum adiabatic calorimetry | 93.6 | 50.19
300 K, Crystal, Drop calorimetry | 93.91 | 50.23
300 K, Crystal, Vacuum adiabatic calorimetry | 93.91 | 50.22
310 K, Crystal, Vacuum adiabatic calorimetry | 95.56 | 50.42
320 K, Crystal, Vacuum adiabatic calorimetry | 97.17 | 50.63
330 K, Crystal, Vacuum adiabatic calorimetry | 98.73 | 50.86
340 K, Crystal, Vacuum adiabatic calorimetry | 100.25 | 51.09
350 K, Crystal, Drop calorimetry | 101.76 | 51.72
350 K, Crystal, Vacuum adiabatic calorimetry | 101.74 | 51.33
400 K, Crystal, Drop calorimetry | 108.79 | 53.82
450 K, Crystal, Drop calorimetry | 115.27 | 56.28
500 K, Crystal, Drop calorimetry | 121.34 | 58.95
550 K, Crystal, Drop calorimetry | 127.09 | 61.78
600 K, Crystal, Drop calorimetry | 132.59 | 64.69
650 K, Crystal, Drop calorimetry | 137.88 | 67.68
700 K, Crystal, Drop calorimetry | 143.01 | 70.72
750 K, Crystal, Drop calorimetry | 148 | 73.8
800 K, Crystal, Drop calorimetry | 152.86 | 76.9
850 K, Crystal, Drop calorimetry | 157.61 | 80.02
900 K, Crystal, Drop calorimetry | 162.28 | 83.17
950 K, Crystal, Drop calorimetry | 166.86 | 86.32
973 K, Crystal, Drop calorimetry | 168.94 | 87.78
973 K, Liquid, Drop calorimetry | 191.65 | 70.56
1000 K, Liquid, Drop calorimetry | 193.58 | 70.56
1050 K, Liquid, Drop calorimetry | 197.03 | 70.56
1100 K, Liquid, Drop calorimetry | 200.31 | 70.56
1150 K, Liquid, Drop calorimetry | 203.44 | 70.56
1200 K, Liquid, Drop calorimetry | 206.45 | 70.56
1250 K, Liquid, Drop calorimetry | 209.33 | 70.56
1300 K, Liquid, Drop calorimetry | 212.1 | 70.56
1350 K, Liquid, Drop calorimetry | 214.76 | 70.56
1400 K, Liquid, Drop calorimetry | 217.32 | 70.56

Conditions | Normal melting temperature [°C]
[1], Crystal, DTA | 699.6

[3]
Conditions | Molar enthalpy of transition or fusion [kcal/mol]
DSC | 5.28
enthalpy increment functions | 5.11
